# According to US11077100B2, “Tetrahydroquinoline derivatives as P2X7 receptor antagonists” (RaQualia Pharma Inc., priority 2017, dated 2021):
# Molecular target: human P2X7 (Homo sapiens (Human), UniProt Q99572)
# Test: Human P2X7 functional assay (Ca2+ influx, Fluo-4, FDSS)
# Type: cell-based
# Conditions: antagonistic activity with respect to the human P2X7 receptor; BzATP final concentration 80 microM
# Method: The ability of the 5,6,7,8-tetrahydroquinoline and 6,7-dihydro-5H-cyclopenta[b]pyridine derivatives of the formula (I) to inhibit the P2X7 channel was measured by Ca^2+ influx assay and electrophysiology assay described below.
# Human P2X7 Functional Assay
# The functional activity of compounds was determined by measuring changes in intracellular calcium concentration using a Ca^2+-sensitive fluorescent dye, Fluo-4 (Molecular Probes). The changes in fluorescent signal were monitored by the cell imaging technology by Hamamatsu Photonics's Functional Drug Screening System (FDSS). Increases in intracellular Ca^2+ concentration were readily detected upon activation with BzATP.
# HEK293 cells stably expressing human P2X7 (GenBank accession number BC011913) carrying a C-terminal FLAG tag were grown in T225 flasks, in a 5% CO2 humidified incubator to about 80% confluence. Media composition consisted of Dulbecco's Modified Eagle Medium (high glucose), 10% fetal bovine serum ([…]), 100 units/[…] Penicillin, 100 microg/mL Streptomycin and 250 microg/mL Geneticine.
# 1. Plate-out HEK293-human P2X7 cells (40 microL medium containing 10,000 cells per well) into poly-D-lysine coated 384-well plates (Corning) at 24 h prior to assay.
# 2. Incubate at 37° C. in 5% CO2.
# 3. Incubate the plate at 37° C. in 5% CO2 for 1 h.
# 5. Test compounds were prepared at 100× the test concentration in DMSO by serial dilution with Biomek-FX liquid handling instrument. 33× diluted compound solutions in assay buffer were prepared in intermediate compound plate with Biomek-NX liquid handling instrument. A further 3× dilution occurred in below steps 6 and 7.
# 6. Add 20 microL of 33× diluted compound solutions into each well and leave the plate for 10 min under the dark at room temperature.
# 7. Measure activity by FDSS as follows: • Set the assay plate on the stacker of FDSS. • Start the detection of fluorescence intensity at 540 nm by 480 nm exicitation. • After 30 seconds, add 20 microL of assay buffer containing 240 microM BzATP (final concentration 80 microM).
# IC50 values for compounds of the present invention were determined from 7-point dose-response studies. Curves were generated using the average of duplicate wells for each data point. Finally, the IC50 values are calculated with the best-fit dose curve determined by XLfit (ID Business Solutions Ltd.).
# Chain of human P2X7 (Q99572 whole entry): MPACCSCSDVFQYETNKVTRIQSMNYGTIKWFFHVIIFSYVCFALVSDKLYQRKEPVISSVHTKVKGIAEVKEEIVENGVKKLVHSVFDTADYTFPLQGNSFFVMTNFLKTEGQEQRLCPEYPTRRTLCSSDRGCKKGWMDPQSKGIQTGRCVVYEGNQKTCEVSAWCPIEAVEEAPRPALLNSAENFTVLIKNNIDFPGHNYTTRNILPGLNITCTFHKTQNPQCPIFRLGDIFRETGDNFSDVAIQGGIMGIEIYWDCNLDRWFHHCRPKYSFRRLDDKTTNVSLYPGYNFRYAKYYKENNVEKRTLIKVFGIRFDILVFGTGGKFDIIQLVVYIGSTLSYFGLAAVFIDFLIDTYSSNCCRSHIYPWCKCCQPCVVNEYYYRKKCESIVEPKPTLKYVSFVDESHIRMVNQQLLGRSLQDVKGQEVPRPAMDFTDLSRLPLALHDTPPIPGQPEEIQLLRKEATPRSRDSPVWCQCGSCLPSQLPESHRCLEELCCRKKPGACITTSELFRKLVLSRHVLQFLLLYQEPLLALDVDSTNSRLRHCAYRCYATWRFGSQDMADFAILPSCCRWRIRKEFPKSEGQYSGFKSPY
row,SMILES,IC50 [nM]
1,"O=C(NCc1c(F)cc(F)cc1F)[C@@H]1CC[C@H](O)c2ncccc21 [Example 73, (5R,8S)-8-hydroxy-N-(2,4,6-trifluorobenzyl)-5,6,7,8-tetrahydroquinoline-5-carboxamide]",101 to 300
2,"O=C(N[C@H]1C[C@@H]1c1ccccc1)[C@]1(F)CC[C@H](O)c2ncccc21 [Example 215, (5S,8S)-5-fluoro-8-hydroxy-N-((1S,2R)-2-phenylcyclopropyl)-5,6,7,8-tetrahydroquinoline-5-carboxamide]",101 to 300
3,"Cc1cc(Cl)cc(Cl)c1CNC(=O)[C@H]1CC[C@H](O)c2ncccc21 [Example 63, (5S,8S)-N-(2,4-dichloro-6-methylbenzyl)-8-hydroxy-5,6,7,8-tetrahydro-quinoline-5-carboxamide]",101 to 300
4,"O=C(NCc1c(Cl)cc(Cl)cc1CO)[C@@]1(F)CC[C@H](O)c2ncccc21 [Example 103, (5R,8S)-N-(2,4-dichloro-6-hydroxymethylbenzyl)-5-fluoro-8-hydroxy-5,6,7,8-tetrahydroquinoline-5-carboxamide]",101 to 300
5,"O=C(NCc1c(Cl)cc(C(F)(F)F)cc1Cl)[C@]1(F)CC[C@@H](O)c2ncccc21 [Example 113, (5S,8R)-N-(2,6-dichloro-4-(trifluoromethyl)benzyl)-5-fluoro-8-hydroxy-5,6,7,8-tetrahydroquinoline-5-carboxamide]",< 50
6,"Cc1cc(Cl)cc(Cl)c1CNC(=O)C1CCC(CC(=O)O)c2ncccc21 (stereo not drawn) [Example 30, 2-(5-((2,4-dichloro-6-methyl-benzyl)carbamoyl)-5,6,7,8-tetrahydroquinolin-8-yl) acetic acid]",< 50
7,"Cc1cnc2c(c1)[C@](F)(C(=O)NCc1ccc(Cl)cc1Cl)CC[C@@]2(O)CO [Example 325, (5S,8S)-N-(2,4-dichlorobenzyl)-5-fluoro-8-hydroxy-8-(hydroxymethyl)-3-methyl-5,6,7,8-tetrahydroquinoline-5-carboxamide]",1000 to 3000
8,"O=C(NCc1ccc(Cl)cc1Cl)[C@@]1(F)CC[C@@H](OCCO)c2ncccc21 [Example 348, (5R,8R)-N-(2,4-dtchlorobenzyl)-5-fluoro-8-(2-hydroxyethoxy)-5.6,7,8-tetrahydroquinoline-5-carboxamide]",101 to 300
9,"Cc1cc(Cl)cc(Cl)c1CNC(=O)C1(O)CCC(=O)c2ncccc21 (stereo not drawn) [Example 15, N-(2,4-dichloro-6-methylbenzyl)-5-hydroxy-8-oxo-5,6,7,8-tetrahydro-quinoline-5-carboxamide]",301 to 1000
10,"O=C(NCc1c(F)cc(Cl)cc1Cl)[C@H]1CC[C@H](O)c2ncccc21 [Example 69, (5S,8S)-N-(2,4-dichloro-6-fluorobenzyl)-8-hy-droxy-5,6,7,8-tetrahydro-quinoline-5-carboxamide]",301 to 1000
11,"CN(CCO)C[C@@]1(O)CC[C@](F)(C(=O)NCc2ccc(Cl)cc2Cl)c2cccnc21 [Example 278, (5R,8S)-N-(2,4-dichlorobenzyl)-5-fluoro-8-hydroxy-8-(((2-hydroxyethyl) (methyl)amino)methyl)-5,6,7,8-tetrahydroquinoline-5-carboxamide]",1000 to 3000
12,"O=C(NCc1cccc(Cl)c1Cl)[C@@]1(F)CC[C@H](O)c2ncccc21 [Example 120, (5R,8S)-N-(2,3-dichlorobenzyl)-5-fluoro-8-hydroxy-5,6,7,8-tetrahydroquinoline-5-carboxamide]",1000 to 3000
13,"O=C(N[C@H]1CCc2ccccc21)[C@]1(F)CC[C@H](O)c2ncccc21 [Example 226, (5S,8S)-N-((S)-2,3-dihydro-1H-inden-1-yl)-5-fluoro-8-hydroxy-5,6,7,8-tetrahydroquinoline-5-carboxamide]",1000 to 3000
14,"Cc1cc(Cl)cc(Cl)c1CNC(=O)[C@@]1(F)CC[C@H](O)c2ncccc21 [Example 99, (5R,8S)-N-(2,4-dichloro-6-methylbenzyl)-5-fluoro-8-hydroxy-5,6,7,8-tetrahydroquinoline-5-carboxamide]",< 50
15,"O=C(NCc1c(F)cc(Cl)cc1Cl)[C@@H]1CC[C@@H](O)c2ncccc21 [Example 91, (5R,8R)-N-(2,4-dichloro-6-fluorobenzyl)-8-hy-droxy-5,6,7,8-tetrahydro-quinoline-5-carboxamide]",101 to 300
16,"O=C(NCc1ccc(Cl)cc1Cl)[C@H]1CC[C@H](O)c2ncccc21 [Example 65, (5S,8S)-N-(2,4-dichloro-benzyl)-8-hydroxy-5,6,7,8-tetrahydroquinoline-5-carboxamide]",301 to 1000
17,"O=C(NCc1ccccc1F)[C@]1(F)CC[C@H](O)c2ncccc21 [Example 223, (5S,8S)-5-fluoro-N-(2-fluorobenzyl)-8-hydroxy-5,6,7,8-tetrahydroquinoline-5-carboxamide]",301 to 1000
18,"O=C(NCc1cc(F)c(F)cc1Cl)[C@@]1(F)CC[C@@H](O)c2ncccc21 [Example 162, (5R,8R)-N-(2-chloro-4,5-difluorobenzyl)-5-fluoro-8-hydroxy-5,6,7,8-tetrahydroquinoline-5-carboxamide]",101 to 300
19,"O=C(NCc1cccc(Cl)c1Cl)[C@@]1(F)CC[C@H](F)c2ncccc21 [Example 354, (5R,8S)-N-(2,3-dichlorobenzyl)-5.8-difluoro-5,6,7,8-tetrahydroquinaline-5-carboxamide]",50 to 100
20,"O=C(NCc1ccc(F)c(F)c1F)[C@@H]1CC[C@@H](O)c2ncccc21 [Example 93, (5R,8R)-8-hydroxy-N-(2,3,4-trifluorobenzyl)-5,6,7,8-tetrahydroquinoline-5-carboxamide]",1000 to 3000
21,"Cc1cccc(Cl)c1CNC(=O)[C@@]1(F)CC[C@@H](O)c2ncccc21 [Example 160, (5R,8R)-N-(2-chloro-6-methylbenzyl)-5-fluoro-8-hydroxy-5,6,7,8-tetrahydroquinoline-5-carboxamide]",101 to 300
22,"O=C(NCc1ccccc1CN1CCOCC1)[C@]1(F)CC[C@H](O)c2ncccc21 [Example 214, (5S,8S)-5-fluoro-8-hydroxy-N-(2-(morpholinomethyl)benzyl)-5,6,7,8-tetrahydroquinoline-5-carboxamide]",101 to 300
23,"O=C(NCc1cc(Cl)ccc1Cl)[C@]1(F)CC[C@H](O)c2ncccc21 [Example 173, (5S,8S)-N-(2,5-dichlorobenzyl)-5-fluoro-8-hydroxy-5,6,7,8-tetrahydroquinoline-5-carboxamide]",50 to 100
24,"O=C1CCC(C(=O)NCc2c(Cl)cc(Cl)cc2CO)c2cccnc21 (stereo not drawn) [Example 4, N-(2,4-dichloro-6-(hydroxy-methyl)benzyl)-8-oxo-5,6,7,8-tetrahydroquinoline-5-carboxamide]",< 50
25,"O=C(NCc1ccc(Cl)cc1C(F)(F)F)[C@@]1(F)CC[C@@H](O)c2ncccc21 [Example 156, (5R,8R)-N-(4-chloro-2-(trifluoromethyl)benzyl)-5-fluoro-8-hydroxy-5,6,7,8-tetrahydroquinoline-5-carboxamide]",101 to 300
26,"O=C(O)CC1CCC(C(=O)NCc2cccc(C(F)(F)F)c2Cl)c2cccnc21 (stereo not drawn) [Example 31, 2-(5-((2-chloro-3-(trifluoro-methyl)benzyl)carbamoyl)-5,6,7,8-tetrahydroquinolin-8-yl)acetic acid]",50 to 100
27,"O=C(N[C@@H]1C[C@H]1c1ccccc1)[C@]1(F)CC[C@H](O)c2ncccc21 [Example 222, (5S,8S)-5-fluoro-8-hydroxy-N-((1R,2S)-2-phenylcyclopropyl)-5,6,7,8-tetrahydroquinoline-5-carboxamide]",301 to 1000
